Source: patent publication US9446047B2, “Substituted 2,3-dihydro-1H-inden-1-one retinoic acid-related orphan nuclear receptor antagonists for treating multiple sclerosis” (Arrien Pharmaceuticals LLC, priority 2013, dated 2016)
Read-outs that look alike come from different tables or passages of the source.

Key:
[1] = test system: IL-17 release from CD4+ T cells; experiment: Cytokine IL-17 estimation by HTRF, IL-17 release from CD4+ T cells; format: cell-based; settings: Homo sapiens, read-out: IL-17 Inhibition
Source text: The assay was designed to assess the potency of test compounds on IL-17 cytokine release from CD4+ T cells. In order to aid in the identification of potent inhibitors, the IC50's determined for the test compounds IL-17 release from CD4+ T cells through the generation of 10 point Dose Response Curves (DRC). Assay methods used to quantify IL-17 secretion is HTRF (Homogenous Time Resolved Fluorescence). IL-17 secreted is detected by anti-IL-17 MAb labeled with XL665, the second MAb labeled with Cryptate, which binds to specific epitopes of human IL-17. Upon close proximity of both acceptor and donor energy transfer (FRET) occurs. This technique has been further enhanced by using long-lived labels combined with the detection on a time-resolved fluorescence basis, allowing […] of prompt fluorescence interferences.
The assay was performed according to manufacturer's instruction. All the reagents were reconstituted according to instructions provided. The reagents were dispensed into a half area 96-well plate in the following order: […] or sample, IL-17 MAbXL665 and 5 μL IL-17 Cryptate. For the negative control, the standard or sample is replaced by […]. The plate is covered with a plate sealer and incubated at rt for 2 h. Following incubation, the plate sealer is removed and the plate is read using HTRF protocol on Envision Microplate reader. All of the data analysis was carried out using Microsoft Excel (2010) and IC50 was determined using GraphPad Prism 4 software. % Inhibition of the test compounds were determined utilizing the following formula: % Inhibition=100−(100*(Average Test Compound Counts−Average Negative Control Counts)/(Average Positive Control Counts−Average Negative Control Counts)).
We have established robust in vitro cell-based HTRF assay for the activation and stimulation of CD4+ T lymphocytes to T helper 17 (Th17) cell differentiation and IL-17 production.

RORγt = biological target: T1, RORγt (Homo sapiens, UniProt P51449); experiment: RORγt-activated IL-17A Prom/LUCPorter HEK 293 cells luciferase reporter assay; format: cell-based; settings: IL-17A Prom/LUCPorter HEK 293 cells transfected with RORγt, 16 h
T1 construct: host or cells: IL-17A Prom/LUCPorter HEK 293 cell line (IMGENEX, IML-301)
T1 sequence (P51449 1-497 isoform P51449-2): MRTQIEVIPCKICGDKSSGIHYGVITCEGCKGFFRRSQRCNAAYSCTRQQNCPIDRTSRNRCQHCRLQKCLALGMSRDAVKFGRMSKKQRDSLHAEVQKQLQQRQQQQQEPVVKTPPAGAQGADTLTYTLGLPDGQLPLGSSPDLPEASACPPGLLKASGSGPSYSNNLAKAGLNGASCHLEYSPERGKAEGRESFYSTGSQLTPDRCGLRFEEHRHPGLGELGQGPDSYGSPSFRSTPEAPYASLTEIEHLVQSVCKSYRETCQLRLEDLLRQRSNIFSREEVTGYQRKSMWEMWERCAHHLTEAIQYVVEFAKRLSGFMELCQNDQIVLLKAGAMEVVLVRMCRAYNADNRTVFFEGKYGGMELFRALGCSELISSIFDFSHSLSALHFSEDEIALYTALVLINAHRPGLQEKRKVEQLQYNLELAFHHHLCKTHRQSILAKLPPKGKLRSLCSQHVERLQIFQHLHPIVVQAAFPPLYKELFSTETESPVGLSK
Procedure: Antagonistic (or inverse agonistic) effects of the test compounds on the RORγt-activated IL-17A Prom/LUCPorter™ HEK 293 cells were analyzed and IC50 of each compound was evaluated. […] Luciferase activity was analyzed using the luciferase reporter assay reagent (IMGENEX, LS100). The data were analyzed using Excel and Prism software. Percent activity was defined as 100×(1−(Well−Control A)/(Control B−Control A)), where Control A was the wells containing cells transfected with RORγt and Control B was the wells containing non-transfected cells. Both Controls A and B were treated with vehicle alone.

RORγ-LBD (RORγt) = biological target: T2, RORγ-LBD (RORγt) (Homo sapiens, UniProt P51449); experiment: TR-FRET RORγt Binding Assay; settings: 6-His(GST)RORγ-LBD, SRC1_2 peptide
T2 construct: the 6-His-(GST) RORγ-LBD was used which expressed and purified from baculovirus infected Sf-21 insect cells; made in house; host or cells: baculovirus-infected Sf-21 insect cells
T2 sequence (P51449 269-508 limits assumed): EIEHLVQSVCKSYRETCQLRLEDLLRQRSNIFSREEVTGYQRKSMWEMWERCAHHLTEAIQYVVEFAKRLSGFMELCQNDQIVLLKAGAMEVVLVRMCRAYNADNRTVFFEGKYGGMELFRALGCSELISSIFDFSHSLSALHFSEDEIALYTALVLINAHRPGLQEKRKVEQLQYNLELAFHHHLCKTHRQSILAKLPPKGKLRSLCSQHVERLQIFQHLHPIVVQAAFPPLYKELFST
Procedure: TR-FRET RORγt Binding Assay: RORγ-LBD contains a 6-His and GST tag peptide from SRC1-2 an aminoterminal biotinyl-[…] was employed and the 6-His-(GST) RORγ-LBD was used which expressed and purified from baculovirus infected Sf-21 insect cells from Invitrogen and purified using glutathione sepharose. […] The peptide binding due to dose-curves of compounds was added the 0.1% DMSO. Fluorescence at wavelength 340 nm was read in each well of […] using an Envision fluorescence reader in Time Resolved mode after overnight incubation at 4° C.

[2] = IL-17 release from CD4+ T cells, HTRF

| Structure (SMILES) | IC50 [1, 2] [µM] | IC50 (RORγt; read-out: RORγt Cell Specific) [µM] | IC50 (RORγ-LBD (RORγt); read-out: RORγt Binding) [µM] | IC50 (RORγt; RORγt Cell Specific) [µM] | IC50 (RORγ-LBD (RORγt); RORγt Binding) [µM] | IC50 [1] [µM] |
| --- | --- | --- | --- | --- | --- | --- |
| COc1cc2c(c(N3CCOCC3)c1OC)CC(Cc1ncccc1C(F)(F)F)C2=O (stereo not drawn) [compound 123, 5,6-dimethoxy-4-morpholino-2-((3-(trifluoromethyl)pyridin-2-yl)methyl)-2,3-dihydro-1H-inden-1-one] | > 1 | > 1 | > 1 | – | – | – |
| COc1cc2c(cc1N1CCOCC1)CC(Cc1ccc(Cl)cc1C(F)(F)F)C2=O (stereo not drawn) [compound 56, 2-(4-chloro-2-(trifluoromethyl)benzyl)-6-methoxy-5-morpholino-2,3-dihydro-1H-inden-1-one] | > 1 | > 1 | > 1 | – | – | – |
| COc1cc2c(cc1N1CCN(C)CC1)CC(Cc1ncccc1C(F)(F)F)C2=O (stereo not drawn) [compound 113] | > 1 | < 0.5 | < 0.5 | – | – | – |
| COc1cc2c(cc1N1CCOCC1)CC(Cc1ccc(C(F)(F)F)cc1)C2=O (stereo not drawn) [compound 86] | > 1 | > 1 | > 1 | – | – | – |
| COc1cc2c(cc1N1CCC(C)CC1)CC(Cc1ncccc1C(F)(F)F)C2=O (stereo not drawn) [compound 142] | < 0.5 | > 1 | > 1 | – | – | – |
| COc1cc2c(cc1N1CCOCC1)CC(Cc1cc(Cl)cc(C(F)(F)F)c1)C2=O (stereo not drawn) [compound 50, 2-(3-chloro-5-(trifluoromethyl)benzyl)-6-methoxy-5-morpholino-2,3-dihydro-1H-inden-1-one] | > 1 | > 1 | < 0.5 | – | – | – |
| COc1cc2c(cc1N1CCN(C)C(C)C1)CC(Cc1ccc(Cl)cc1F)C2=O (stereo not drawn) [compound 20, 2-(4-chloro-2-fluorobenzyl)-5-(3,4-dimethylpiperazin-1-yl)-6-methoxy-2,3-dihydro-1H-inden-1-one] | > 1 | > 10 | > 1 | – | – | – |
| COc1cc2c(cc1N1CCOCC1)CC(Cc1cc(C(F)(F)F)cnc1Cl)C2=O (stereo not drawn) [compound 62, 2-((2-chloro-5-(trifluoromethyl)pyridin-3-yl)methyl)-6-methoxy-5-morpholino-2,3-dihydro-1H-inden-1-one] | – | > 1 | > 1 | – | – | < 0.5 |
| COc1cc2c(cc1N1CCOCC1)CC(Cc1cc(C)n[nH]1)C2=O (stereo not drawn) [compound 95] | > 1 | > 1 | > 1 | – | – | – |
| COc1cc2c(cc1N1CCOCC1)CC(Cc1ccc(Cl)c(C(F)(F)F)c1)C2=O (stereo not drawn) [compound 89] | < 0.5 | > 1 | > 1 | – | – | – |
| COc1cc2c(cc1N1CCOCC1)CC(Cc1ccc(SC(F)(F)F)cc1)C2=O (stereo not drawn) [compound 74, 6-methoxy-5-morpholino-2-(4-((trifluoromethyl)thio)benzyl)-2,3-dihydro-1H-inden-1-one] | > 1 | > 10 | > 10 | – | – | – |
| COc1cc2c(c(N3CCN(C)CC3)c1OC)CC(Cc1ccc(SC(F)(F)F)cc1)C2=O (stereo not drawn) [compound 125, 5,6-dimethoxy-4-(4-methylpiperazin-1-yl)-2-(4-((trifluoromethyl)thio)benzyl)-2,3-dihydro-1H-inden-1-one] | > 1 | > 1 | > 1 | – | – | – |
| COc1cc2c(c(N3CCC(C)CC3)c1OC)CC(Cc1ccc(SC(F)(F)F)cc1)C2=O (stereo not drawn) [compound 131, 5,6-dimethoxy-4-(4-methylpiperidin-1-yl)-2-(4-((trifluoromethyl)thio)benzyl)-2,3-dihydro-1H-inden-1-one] | > 1 | > 1 | > 1 | – | – | – |
| COc1cc2c(cc1N1CCOCC1)CC(Cc1ccc(Cl)cc1F)C2=O (stereo not drawn) [compound 16, 2-(4-chloro-2-fluorobenzyl)-6-methoxy-5-morpholino-2,3-dihydro-1H-inden-1-one] | > 1 | > 1 | > 1 | – | – | – |
| COc1cc2c(cc1N1CCOCC1)CC(Cc1cccc(C(F)(F)F)c1)C2=O (stereo not drawn) [compound 37, 6-methoxy-5-morpholino-2-(3-(trifluoromethyl)benzyl)-2,3-dihydro-1H-inden-1-one] | < 0.5 | – | – | < 0.5 | < 0.5 | – |

Now from value to molecule, other results behind:

| IC50 [1, 2] [µM] | IC50 (RORγt; read-out: RORγt Cell Specific) [µM] | IC50 (RORγ-LBD (RORγt); read-out: RORγt Binding) [µM] | IC50 (RORγt; RORγt Cell Specific) [µM] | IC50 (RORγ-LBD (RORγt); RORγt Binding) [µM] | Structure (SMILES) | IC50 [1] [µM] |
| --- | --- | --- | --- | --- | --- | --- |
| < 0.5 | > 1 | > 1 | – | – | COc1ccc2c(c1)CC(Cc1ccc(SC(F)(F)F)cc1)C2=O (stereo not drawn) [compound 182] | – |
| < 0.5 | < 0.5 | < 0.5 | – | – | CCS(=O)(=O)Oc1ccc2c(c1)CC(Cc1ccc(SC(F)(F)F)cc1)C2=O (stereo not drawn) [compound 194] | – |
| < 0.5 | > 1 | > 1 | – | – | COc1cc2c(cc1N1CCC(C)CC1)CC(Cc1cccc(C(F)(F)F)c1)C2=O (stereo not drawn) [compound 154] | – |
| > 1 | < 0.5 | > 1 | – | – | COc1cc2c(cc1N1CCN(C)CC1)CC(Cc1cc(C(F)(F)F)ccc1Cl)C2=O (stereo not drawn) [compound 161, 2-(2-chloro-5-(trifluoromethyl)benzyl)-6-methoxy-5-(4-methylpiperazin-1-yl)-2,3-dihydro-1H-inden-1-one] | – |
| < 0.5 | > 1 | < 0.5 | – | – | CCS(=O)(=O)Oc1cc2c(cc1OC)CC(Cc1ccc(SC(F)(F)F)cc1)C2=O (stereo not drawn) [compound 188] | – |
| < 0.5 | < 0.5 | < 0.5 | – | – | O=C1c2ccc(O)cc2CC1Cc1ccc(SC(F)(F)F)cc1 (stereo not drawn) [compound 193] | – |
| < 0.5 | < 0.5 | < 0.5 | – | – | COc1cc2c(cc1N1CCN(C)CC1)CC(Cc1cncc(C(O)(C(F)(F)F)C(F)(F)F)c1)C2=O (stereo not drawn) [compound 256] | – |
| > 1 | > 10 | < 0.5 | – | – | COc1cc2c(cc1N1CCC(F)CC1)CC(Cc1ccc(SC(F)(F)F)cc1)C2=O (stereo not drawn) [compound 149, 5-(4-fluoropiperidin-1-yl)-6-methoxy-2-(4-((trifluoromethyl)thio)benzyl)-2,3-dihydro-1H-inden-1-one] | – |
| < 0.5 | > 1 | < 0.5 | – | – | COc1cc2c(cc1N1CCOCC1)CC(Cc1cc(C(F)(F)F)ccc1Cl)C2=O (stereo not drawn) [compound 158] | – |
| < 0.5 | < 0.5 | < 0.5 | – | – | COc1cc2c(cc1N1CCOCC1)CC(Cc1cccc(C(O)(C(F)(F)F)C(F)(F)F)n1)C2=O (stereo not drawn) [compound 266] | – |
| < 0.5 | < 0.5 | < 0.5 | – | – | CCS(=O)(=O)Oc1cc2c(cc1OC)CC(Cc1ncccc1C(F)(F)F)C2=O (stereo not drawn) [compound 191] | – |
| < 0.5 | > 1 | < 0.5 | – | – | COc1ccc2c(c1Cl)CC(Cc1ccc(SC(F)(F)F)cc1)C2=O (stereo not drawn) [compound 177] | – |
